For the assay, the target named is T1, RHOA (Homo sapiens, UniProt P61586).
T1 construct: commercial RHOA protein (Sigma-Aldrich SRP5127), immobilized on CMDH gold chip
Description: surface plasmon resonance, immobilized RHOA (Reichert SR7500DC). The class given is binding.

Consider five compounds from PMC5348404, “Systematic approach identifies RHOA as a potential biomarker therapeutic target for Asian gastric cancer” (Oncotarget, 2016).

SMILES strings stand for the structures.

T1 sequence (P61586 whole entry): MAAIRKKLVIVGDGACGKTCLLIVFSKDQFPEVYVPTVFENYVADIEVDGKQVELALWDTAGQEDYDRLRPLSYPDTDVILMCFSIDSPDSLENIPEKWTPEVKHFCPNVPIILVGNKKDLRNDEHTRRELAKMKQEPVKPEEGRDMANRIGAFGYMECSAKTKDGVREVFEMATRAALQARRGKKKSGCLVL

For the compound `O=S(=O)(N/N=C/c1ccc2c(c1)OCO2)c1ccccc1` [JK-121], the Kd stood at 67 ± 3 µM.
Consider `O=C(N/N=C/c1ccc2c(c1)OCO2)c1ccccc1` [JK-122], for which the Kd is 6.9 ± 0.4 µM. This Kd is about 9.7-fold lower than that of the compound before.
`O=C(N/N=C/c1ccc2c(c1)OCO2)c1ccncc1` [JK-123]: the Kd amounted to 16.3 ± 0.4 µM.
The compound `O=C(N/N=C/c1ccc2c(c1)OCO2)c1ccc(O)cc1` [JK-124] had a Kd of 44 ± 2 µM.
Take `CC(=O)N/N=C/c1ccc2c(c1)OCO2` [JK-125]: the affinity, expressed as Kd, was 8.7 ± 6 µM.

A word on the Kd: it is the free concentration of one partner at which half of the binding sites on the other are occupied at equilibrium, for simple one-to-one binding. Read a high Kd as weaker binding.
